Measurements as given in patent US4970228A, “Novel aminoalkyl-substituted heterocyclic sulfur compounds” (Merrell Dow Pharmaceuticals, priority 1989, dated 1990).
pKi: −log10 of the molar value.

How the values were obtained:
[1] = test system: spontaneously hypertensive rats; assay: Antihypertensive activity in vivo: continuous recording of arterial blood pressure in unanesthetized spontaneously hypertensive rats; design: Max Change MBP: unit not given here; settings: for % Lowering MBP / Max Change MBP: dosed as tosylate salt, MBP = mean blood pressure
Experimental: The ability of the compounds of this invention to lower blood pressure can be determined in vivo by using standard and well-known procedures such as those employed in the continuous recording of arterial blood pressure in conscious animals. For instance, test compounds are administered intraperitoneally (ip) to unanesthetized, spontaneously hypertensive rats and the arterial blood pressure is monitored continuously. In tests utilizing the above described procedure, the antihypertensive effects of the test compounds are readily apparent as indicated by the degree of lowering of mean blood pressure (MBP) noted in Table II.
*Dose was administered as mg/kg tosylate salt.

[2] = target: T1, dopamine-β-hydroxylase (DBH) (Bos taurus, UniProt P15101); assay: Time-dependent DBH inhibitory activity in vitro (oxygen uptake, tyramine as substrate); format: biochemical
T1 sequence (P15101 1-610): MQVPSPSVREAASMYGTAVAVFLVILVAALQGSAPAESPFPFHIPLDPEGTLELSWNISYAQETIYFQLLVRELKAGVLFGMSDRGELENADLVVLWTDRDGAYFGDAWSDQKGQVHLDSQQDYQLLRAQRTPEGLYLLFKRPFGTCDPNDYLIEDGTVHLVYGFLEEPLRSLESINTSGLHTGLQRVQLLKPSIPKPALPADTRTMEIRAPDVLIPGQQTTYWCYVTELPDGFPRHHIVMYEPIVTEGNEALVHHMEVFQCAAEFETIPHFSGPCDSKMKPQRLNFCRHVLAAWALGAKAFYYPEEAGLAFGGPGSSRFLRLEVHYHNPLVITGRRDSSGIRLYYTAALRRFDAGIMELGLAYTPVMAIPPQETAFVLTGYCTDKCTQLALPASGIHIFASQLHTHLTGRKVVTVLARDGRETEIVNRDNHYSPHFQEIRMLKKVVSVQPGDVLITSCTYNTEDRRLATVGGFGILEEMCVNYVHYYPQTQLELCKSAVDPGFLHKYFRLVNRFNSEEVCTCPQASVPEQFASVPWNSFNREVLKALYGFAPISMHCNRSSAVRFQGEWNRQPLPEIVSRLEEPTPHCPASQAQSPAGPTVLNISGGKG
Experimental: Since DBH is a major enzyme in the synthetic pathway of norepinephrine (NE), the presence of a DBH inhibitor would act to decrease the amount of NE produced, and thereby have an antihypertensive effect. The DBH inhibitory properties of the compounds of this invention can readily be determined by standard and well-known procedures. […] The test compound is added at the desired concentration, and the system is incubated. Aliquots are taken at different time intervals and DBH activity is measured using tyramine as the substrate. The reaction is followed by measuring oxygen uptake using a polarographic electrode and an oxygen monitor by the method of S. May, et al., J. Biol. Chem., 256, 2258 (1981).
t 1/2: time required for 50% log activity remaining

[3] = target: T1, dopamine-β-hydroxylase (DBH); assay: DBH inhibition kinetics: conversion of tyramine to octopamine, HPLC with fluorometric quantitation; format: biochemical
Text: The DBH inhibitory properties of the compounds of this invention can also readily be determined in vitro by standard and well known procedures for assaying the conversion of tyramine to octopamine in the presence of DBH, such as the procedure set forth by Feilchenfeld, N. B., Richter, H. W. and Waddell, W. H. in "Time-Resolved Assay of Dopamine Beta Hydroxylase Activity Utilizing High-Pressure Liquid Chromatography", Analyt. Biochem., 122, 124-128 (1982). Determination of the kinetics of DBH inhibition is exemplified by a procedure where the enzyme-assisted conversion of tyramine to octopamine is determined by incubating varying concentrations of test compound with constant concentrations of substrate, enzyme (DBH), molecular oxygen, an electron donor such as ascorbate and the necessary cofactors for the enzyme at optimal temperature and pH. After incubation, the product is separated out by high-performance liquid chromatography and quantitated fluorometrically, from which an inhibition constant (ki) can readily be calculated.

| SMILES | % Lowering MBP ([1]; 200 mg/kg ip) [%] | Max Change MBP ([1]; 200 mg/kg ip) | Activity in the time-dependent DBH inhibition assay (in words) [2] | % Lowering MBP ([1]; 100 mg/kg ip) [%] | Max Change MBP ([1]; 100 mg/kg ip) | other results |
| --- | --- | --- | --- | --- | --- | --- |
| NCC=C1SCCS1 [Compound 1 (Table I), 2-(1,3-dithiolan-2-ylidene)ethanamine] | 21.7 | -39 +/-13 | most active compound of the compounds tested | – | – | – |
| NC/C=C1/CCCS1 [(Z)-2-(Dihydro-2(3H)-thienylidene)ethanamine] | – | – | not active | 28.6 | -54 +/-21 | In vivo antihypertensive activity (in words) ([1]; ip, spontaneously hypertensive rats): active as an in vivo antihypertensive agent |
| NC/C=C1\CCCS1 [Compound 4 (Table I), (E)-2-(dihydro-2(3H)-thienylidene)ethanamine] | – | – | – | 30.0 | -55 +/-22 | – |
| CC(N)C=C1SCCS1 (stereo not shown) [Compound 3 (Table I), 1-(1,3-dithiolan-2-ylidene)-2-propanamine] | 17.3 | -30 +/-13 | – | – | – | – |
| NCCC1SCCS1 [1,3-Dithiolane-2-ethanamine] | – | – | – | – | – | DBH inhibitory activity (in words) ([3]; judged from ki): potent activity as a DBH inhibitor; pKi ([3]; tyramine to octopamine conversion, read-out: ki (inhibition constant), DBH): 4.96 |
